In ChEMBL document CHEMBL1201862, “PubChem BioAssay data set” (2004):
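Cultured in 96-well plates, cells were exposed to test compound for 48 hours across five concentrations. GI50 = concentration required for 50% inhibition of growth.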 Active and inactive are the calls of the source. No stated cut-off is given here; in the data, active = GI50 up to about 1.1 µM and inactive = higher.

Experiments:
Experiment in all cases: growth of human tumour cells (NCI), 48 h
RPMI-8226 = system: RPMI-8226
Malme-3M = system: Malme-3M
SN12C = system: SN12C
SF-268 = system: SF-268
OVCAR-3 = system: OVCAR-3
KM-20L2 = system: KM-20L2
HT-29 = system: HT-29
ACHN = system: ACHN
786-0 = system: 786-0
TK-10 = system: TK-10
LOX IMVI = system: LOX IMVI
COLO 205 = system: COLO 205
SK-MEL-5 = system: SK-MEL-5
BT-549 = system: BT-549
MDA-MB-231 = system: MDA-MB-231
MDA-N = system: MDA-N
MCF7 = system: MCF7
HCC 2998 = system: HCC 2998
Hs-578T = system: Hs-578T
MDA-MB-435 = system: MDA-MB-435

SMILES | GI50 (RPMI-8226) | GI50 (Malme-3M) | GI50 (SN12C) | GI50 (SF-268) | GI50 (OVCAR-3) | GI50 (KM-20L2) | GI50 (HT-29) | GI50 (ACHN) | GI50 (786-0) | GI50 (TK-10) | GI50 (LOX IMVI) | GI50 (COLO 205) | GI50 (SK-MEL-5) | GI50 (BT-549) | GI50 (MDA-MB-231) | GI50 (MDA-N) | GI50 (MCF7) | GI50 (HCC 2998) | GI50 (Hs-578T) | GI50 (MDA-MB-435)
Oc1ccccc1-c1cnnc(-c2ccccc2O)c1 | 16.7 µM (inactive) | 33.6 µM (inactive) | 30.3 µM (inactive) | 38.2 µM (inactive) | 19 µM (inactive) | 43.5 µM (inactive) | 26.5 µM (inactive) | 27.7 µM (inactive) | 17.9 µM (inactive) | 28.7 µM (inactive) | 20.3 µM (inactive) | 22 µM (inactive) | – | – | – | – | – | – | – | –
CN(C)CCC(=O)/C=C\c1ccccc1 | 14.6 µM (inactive) | 17.1 µM (inactive) | 16.6 µM (inactive) | – | 18.2 µM (inactive) | 30.6 µM (inactive) | 19.5 µM (inactive) | 18.2 µM (inactive) | 16.3 µM (inactive) | 18.5 µM (inactive) | 14.3 µM (inactive) | 15.8 µM (inactive) | 17.6 µM (inactive) | – | – | – | – | – | – | –
CN(C)CC1CCC/C(=C\c2ccc(OC(=O)/C=C/c3ccccc3)cc2)C1=O (stereo unspecified) | 0.656 µM (active) | 2.2 µM (inactive) | 2.01 µM (inactive) | 3.37 µM (inactive) | 1.97 µM (inactive) | – | 1.87 µM (inactive) | 2.51 µM (inactive) | 0.776 µM (active) | 1.73 µM (inactive) | 0.538 µM (active) | 1.99 µM (inactive) | 3.64 µM (inactive) | 2.11 µM (inactive) | 2.73 µM (inactive) | 2.52 µM (inactive) | 0.208 µM (active) | 10.5 µM (inactive) | 3.28 µM (inactive) | 2.59 µM (inactive)
Cc1nc2c(Br)cc(Br)cc2c(=O)n1-c1ccccc1NC1OC(CO)C(O)C(O)C1O (stereo unspecified) | > 100 µM (inactive) | > 100 µM (inactive) | > 100 µM (inactive) | > 100 µM (inactive) | > 100 µM (inactive) | – | > 100 µM (inactive) | > 100 µM (inactive) | > 100 µM (inactive) | > 100 µM (inactive) | > 100 µM (inactive) | > 100 µM (inactive) | > 100 µM (inactive) | > 100 µM (inactive) | > 100 µM (inactive) | > 100 µM (inactive) | > 100 µM (inactive) | > 100 µM (inactive) | > 100 µM (inactive) | > 100 µM (inactive)
N#CC(NNC(=O)Cc1ccccc1)c1ccccc1O (stereo unspecified) | 6.87 µM (inactive) | 16.3 µM (inactive) | 23.3 µM (inactive) | 9.04 µM (inactive) | 3.75 µM (inactive) | – | 9.18 µM (inactive) | 6.56 µM (inactive) | 8.75 µM (inactive) | 24.2 µM (inactive) | 4.98 µM (inactive) | 12.1 µM (inactive) | 10.6 µM (inactive) | 21 µM (inactive) | 8.2 µM (inactive) | 19.4 µM (inactive) | 10.2 µM (inactive) | 12.7 µM (inactive) | 56.2 µM (inactive) | 27.7 µM (inactive)
COC(=O)CCC(C)C1CCC2C3C(C[C@H](OC(C)=O)[C@]12C)[C@@]1(C)CCC2(C[C@H]1C[C@H]3OC(C)=O)OOC1(CC[C@]3(C)C4C[C@H](OC(C)=O)[C@]5(C)C(C(C)CCC(=O)OC)CCC5C4[C@H](OC(C)=O)C[C@@H]3C1)OO2 (stereo partly specified) | > 100 µM (inactive) | > 100 µM (inactive) | 83.2 µM (inactive) | 92 µM (inactive) | > 100 µM (inactive) | – | > 100 µM (inactive) | 33.5 µM (inactive) | > 100 µM (inactive) | > 100 µM (inactive) | > 100 µM (inactive) | > 100 µM (inactive) | > 100 µM (inactive) | 97.3 µM (inactive) | > 100 µM (inactive) | > 100 µM (inactive) | > 100 µM (inactive) | > 100 µM (inactive) | > 100 µM (inactive) | > 100 µM (inactive)
C=CC(C)(O)CCC1C(=C)C(O)CC2C(C)(C)CCCC12C (stereo unspecified) | 20 µM (inactive) | 18.2 µM (inactive) | 18.9 µM (inactive) | 19.9 µM (inactive) | 18.9 µM (inactive) | – | 17.8 µM (inactive) | 26 µM (inactive) | 18.6 µM (inactive) | 20 µM (inactive) | 19.2 µM (inactive) | 16 µM (inactive) | 16 µM (inactive) | 18 µM (inactive) | 17.7 µM (inactive) | 20.4 µM (inactive) | 23.2 µM (inactive) | 18.6 µM (inactive) | 22.6 µM (inactive) | 18.6 µM (inactive)
COc1ccccc1C(O)[C@@H]1C[C@@H]2[C@H]3CC[C@@](C)([C@@H]2O1)C3(C)C (stereo partly specified) | 25.2 µM (inactive) | 15 µM (inactive) | 16.4 µM (inactive) | 22.9 µM (inactive) | 17.1 µM (inactive) | – | 19.4 µM (inactive) | 19.1 µM (inactive) | 17.8 µM (inactive) | 21.8 µM (inactive) | 18.4 µM (inactive) | 19.1 µM (inactive) | 17.3 µM (inactive) | 18.1 µM (inactive) | 17.3 µM (inactive) | 16.7 µM (inactive) | 19 µM (inactive) | 20.8 µM (inactive) | 14.7 µM (inactive) | 18.5 µM (inactive)
CN(C)CCNC1=CC(=O)c2c(O)ccc(O)c2C1=O | 7.52 µM (inactive) | 1.25 µM (inactive) | 6.47 µM (inactive) | 12.3 µM (inactive) | 2.33 µM (inactive) | – | 2.59 µM (inactive) | 11.5 µM (inactive) | 4.7 µM (inactive) | 14.4 µM (inactive) | 3.39 µM (inactive) | 1.9 µM (inactive) | 1.67 µM (inactive) | 14.6 µM (inactive) | 11.7 µM (inactive) | 1.97 µM (inactive) | 2.49 µM (inactive) | 3.88 µM (inactive) | 23.1 µM (inactive) | 1.8 µM (inactive)
COc1cc(-c2cc(=O)c3c(OC)c(OC)c(OC)c(OC)c3o2)cc(OC)c1OC [HEPATAMETHOXYFLAVONE] | 26.1 µM (inactive) | 39.6 µM (inactive) | 43.6 µM (inactive) | 32.9 µM (inactive) | 25.5 µM (inactive) | – | 35.9 µM (inactive) | 21.9 µM (inactive) | 58.9 µM (inactive) | 44.4 µM (inactive) | 25.9 µM (inactive) | 18.7 µM (inactive) | 12.4 µM (inactive) | 48.6 µM (inactive) | 31.6 µM (inactive) | 42.7 µM (inactive) | 84.3 µM (inactive) | 30.3 µM (inactive) | 29 µM (inactive) | 29 µM (inactive)
CC1CC[C@@]2(OC1)OC1C[C@H]3[C@@H]4CCC5CC(O)CC[C@]5(C)[C@H]4C/C(=N\N(C)C)[C@]3(C)C1[C@@H]2C (stereo partly specified) | 26.9 µM (inactive) | 33.1 µM (inactive) | 24.8 µM (inactive) | 31.1 µM (inactive) | 17.9 µM (inactive) | – | 19.6 µM (inactive) | 30.3 µM (inactive) | 20.3 µM (inactive) | 29.2 µM (inactive) | 26.7 µM (inactive) | 19.9 µM (inactive) | 21.7 µM (inactive) | 29.4 µM (inactive) | 19.2 µM (inactive) | 19.9 µM (inactive) | 34.9 µM (inactive) | 19.1 µM (inactive) | 28.6 µM (inactive) | 19.5 µM (inactive)
c1n[nH]cc1C12C3C4C5C3C1C5C42 (stereo unspecified) | > 100 µM (inactive) | > 100 µM (inactive) | > 100 µM (inactive) | > 100 µM (inactive) | > 100 µM (inactive) | – | > 100 µM (inactive) | > 100 µM (inactive) | > 100 µM (inactive) | > 100 µM (inactive) | > 100 µM (inactive) | > 100 µM (inactive) | > 100 µM (inactive) | > 100 µM (inactive) | > 100 µM (inactive) | > 100 µM (inactive) | > 100 µM (inactive) | > 100 µM (inactive) | > 100 µM (inactive) | > 100 µM (inactive)
CCOC(=O)C(SCCO)C(C(=O)OCC)n1cc(C)c(=O)[nH]c1=O (stereo unspecified) | 7.89 µM (inactive) | 15.4 µM (inactive) | 10.7 µM (inactive) | 29.3 µM (inactive) | 12.5 µM (inactive) | – | 12.9 µM (inactive) | 8.75 µM (inactive) | 3.88 µM (inactive) | 24.9 µM (inactive) | 6.84 µM (inactive) | 10 µM (inactive) | 23.2 µM (inactive) | 23.6 µM (inactive) | 15.9 µM (inactive) | 15.1 µM (inactive) | 11.6 µM (inactive) | 27.4 µM (inactive) | 63.4 µM (inactive) | 14.3 µM (inactive)
NCS(=O)(=O)O | > 100 µM (inactive) | > 100 µM (inactive) | > 100 µM (inactive) | > 100 µM (inactive) | > 100 µM (inactive) | – | > 100 µM (inactive) | > 100 µM (inactive) | > 100 µM (inactive) | > 100 µM (inactive) | > 100 µM (inactive) | > 100 µM (inactive) | > 100 µM (inactive) | > 100 µM (inactive) | > 100 µM (inactive) | > 100 µM (inactive) | > 100 µM (inactive) | > 100 µM (inactive) | > 100 µM (inactive) | > 100 µM (inactive)
CN1CCc2c3n(c4cc(Br)ccc24)[C@H](O)CCCC31 (stereo partly specified) | 2.4 µM (inactive) | 2.04 µM (inactive) | > 7.16 µM (inactive) | > 9.31 µM (inactive) | > 7.5 µM (inactive) | – | 1.81 µM (inactive) | > 10 µM (inactive) | 1.7 µM (inactive) | > 7.36 µM (inactive) | 1.74 µM (inactive) | 1.78 µM (inactive) | 3.18 µM (inactive) | > 10 µM (inactive) | 2.13 µM (inactive) | 1.82 µM (inactive) | 1.78 µM (inactive) | 1.75 µM (inactive) | 2.15 µM (inactive) | 1.8 µM (inactive)
